The values that follow come from DBAASP.

≈ marks a conversion by molar mass, not a printed value. Where “and” joins values, the source holds several entries; their conditions need not be identical. Equal entries are not always repeated.

Some test systems named below: Staphylococcus aureus; Escherichia coli; Listeria monocytogenes; Bacillus subtilis 168; Acinetobacter baumannii; Klebsiella pneumoniae; Escherichia coli K-12; Staphylococcus aureus 75; Escherichia coli JM109; Cupriavidus necator H16; Aspergillus fumigatus; Escherichia coli D22; Micrococcus luteus A270.
Holding throughout (test): ≥ marks a high value that may be exact or a test limit, other limits are often not marked, values filed in µg/mL are converted to µM
Test [1] deals with Proteus vulgaris ATCC 6380.
For test [2], the system named is Pseudomonas aeruginosa ATCC 9027.
The test system of test [3] is Micrococcus luteus ATCC 9341.
Test [4] concerns Escherichia coli ATCC 2592.
Test [5] deals with Staphylococcus aureus ATCC 6538.
In test [6] the test system is Candida albicans ATCC 36232.
Test [7] concerns Staphylococcus aureus USA 300.
In test [8] the test system is Pseudomonas aeruginosa BNCC 125486.
For test [9], the system named is Pseudomonas aeruginosa PAO1.
Test [10] concerns Staphylococcus aureus BNCC 186335.
Test [11] relates to Escherichia coli BNCC 133264.
Test [12] deals with Staphylococcus aureus 936.
In test [13] the test system is Bacillus subtilis ATCC 23857.
Test [14] relates to Escherichia coli NCTC 10418.
The test system of test [15] is Staphylococcus aureus 725.
Test [16] relates to Acinetobacter baumannii 9840.
The subject of test [17] is Escherichia coli ATCC 25922.
Test [18] deals with Staphylococcus aureus NCTC 10788.
In test [19] the test system is Staphylococcus aureus 113.
In test [20] the test system is Acinetobacter baumannii 97830.
Test [21] deals with Staphylococcus epidermidis ATCC 12228.
For test [22], the system named is Staphylococcus aureus ATCC 25923.
In test [23] the test system is Staphylococcus aureus ATCC 33591.
For test [24], the system named is Candida albicans NCPF 1467.
Test [25] concerns Pseudomonas aeruginosa 5167.
The test system of test [26] is Pseudomonas aeruginosa 1570.
For test [27], the system named is Salmonella enterica subsp. enterica serovar Typhimurium ATCC 14028.
In test [28] the test system is Pseudomonas aeruginosa ATCC 15692.
Test [29] relates to Staphylococcus aureus 794.
Test [30] has as its system Pseudomonas putida GPp104.
Test [31] deals with Escherichia coli BL21(DE3).
Test [32] relates to Staphylococcus aureus PTCC 1442.
For test [33], the system named is Neurospora crassa CBS 327-54.
Test [34] has as its system Pseudomonas aeruginosa PTCC 2834.

For `CC[C@H](C)[C@H](NC(=O)[C@H](CCCCN)NC(=O)[C@@H]1CCCN1C(=O)[C@H](CC(C)C)NC(=O)[C@H](Cc1ccccc1)NC(=O)[C@H](CC(N)=O)NC(=O)[C@H](C)N)C(=O)N[C@@H](Cc1ccccc1)C(=O)N[C@@H](CS)C(=O)N[C@@H](CCCCN)C(=O)N[C@H](C(=O)N[C@H](C(=O)N[C@@H](CCCN=C(N)N)C(=O)N[C@@H](CCCCN)C(=O)N[C@@H](CS)C(N)=O)[C@@H](C)O)[C@@H](C)CC` [ANFLPKIFCKITRKC], the MIC (in general, the least concentration at which growth counts as inhibited) in test [1] was ≥ 56.1 µM; in [2] it was 28.1 µM (≈ 50 µg/mL); in test [3] it was 14 µM (≈ 25 µg/mL); in [4], 28.1 µM (≈ 50 µg/mL); against Staphylococcus aureus, > 56.1 µM; in [5], 56.1 µM (≈ 99.9 µg/mL). Also, the minimum inhibitory concentration (MIC) in test [6] worked out at 28.1 µM (≈ 50 µg/mL).
Regarding `CC[C@H](C)[C@H](NC(=O)[C@H](CCCCN)NC(=O)[C@@H]1CCCN1C(=O)[C@@H](NC(=O)[C@H](CC(C)C)NC(=O)[C@H](CCCCN)NC(=O)[C@H](CC(C)C)NC(=O)[C@@H](NC(=O)[C@H](CO)NC(=O)CNC(=O)[C@H](Cc1ccccc1)NC(=O)[C@@H](N)Cc1ccccc1)C(C)C)[C@@H](C)CC)C(=O)N[C@@H](CC(C)C)C(N)=O` [FFGSVLKLIPKIL], the MIC is 21.7 µM (≈ 32 µg/mL) against Escherichia coli; 3.12 µM (≈ 4.6 µg/mL) in test [7]; 1.36 µM (≈ 2 µg/mL) in the test with Listeria monocytogenes; 6.25 µM (≈ 9.21 µg/mL) against Bacillus subtilis 168; ≥ 43.4 µM against Acinetobacter baumannii; > 43.4 µM against Klebsiella pneumoniae. The MIC in test [8] is ≥ 86.8 µM; in [9], > 100 µM; against Staphylococcus aureus, 1.36 µM (≈ 2 µg/mL); against Escherichia coli K-12 it was 25 µM (≈ 36.8 µg/mL); in test [10] it was 1.36 µM (≈ 2 µg/mL); in [11] it was ≥ 43.4 µM.
As for `CC(C)C[C@H](NC(=O)[C@H](CC(C)C)NC(=O)[C@H](CCCCN)NC(=O)[C@H](CCCCN)NC(=O)[C@H](CC(C)C)NC(=O)[C@H](CC(C)C)NC(=O)[C@H](CCCCN)NC(=O)[C@H](CC(C)C)NC(=O)[C@@H](N)Cc1ccccc1)C(N)=O` [FLKLLKKLL], the MIC was 7.17 µM (≈ 7.99 µg/mL) in test [12]; 7.17 µM (≈ 7.99 µg/mL) against Staphylococcus aureus 75; 3.59 µM (≈ 4 µg/mL) in test [13]; 14 µM (≈ 15.6 µg/mL) in test [14]; 7.17 µM (≈ 7.99 µg/mL) in test [15]; 10.1 µM (≈ 11.3 µg/mL) in test [16]. The MIC was determined as 10.1 µM (≈ 11.3 µg/mL) against Acinetobacter baumannii; 28.7 µM (≈ 32 µg/mL) in [17]; 7 µM (≈ 7.8 µg/mL) in test [18]; 7.17 µM (≈ 7.99 µg/mL) in test [19]; 7.17 µM (≈ 7.99 µg/mL) in [20]; 14.3 µM (≈ 16 µg/mL) in test [21]. Further, the MIC is 14.3 µM (≈ 16 µg/mL) in [22]; 7.17 µM and 14.3 µM in test [23]; 7 µM (≈ 7.8 µg/mL) in [24]; 14.3 µM (≈ 16 µg/mL) in test [25]; 7.17 µM (≈ 7.99 µg/mL) in [26]; 14.3 µM (≈ 16 µg/mL) in test [27]. Moreover, the values for the MIC in test [28] and in test [29] were 7.17 µM (≈ 7.99 µg/mL) and 14.3 µM (≈ 16 µg/mL), respectively.
As for `CC[C@H](C)[C@H](NC(=O)[C@H](Cc1ccc(O)cc1)NC(=O)[C@@H](NC(=O)[C@@H]1CCCN1C(=O)[C@H](CCCN=C(N)N)NC(=O)[C@@H]1CCCN1C(=O)[C@H](CC(N)=O)NC(=O)[C@@H](N)CCCN=C(N)N)C(C)C)C(=O)N1CCC[C@H]1C(=O)N[C@@H](CCC(N)=O)C(=O)N1CCC[C@H]1C(=O)N[C@@H](CCCN=C(N)N)C(=O)N1CCC[C@H]1C(=O)N1CCC[C@H]1C(=O)N[C@@H](Cc1cnc[nH]1)C(=O)N1CCC[C@H]1C(=O)N[C@@H](CCCN=C(N)N)C(=O)N[C@@H](CC(C)C)C(=O)O` [RNPRPVYIPQPRPPHPRL], the MIC was found to be 6.25 µM (≈ 13.7 µg/mL) in the test on Escherichia coli JM109, 6.25 µM (≈ 13.7 µg/mL) in [30], 0.313 µM (≈ 0.686 µg/mL) in [31] and 25 µM (≈ 54.8 µg/mL) against Cupriavidus necator H16.
With `CSCC[C@H](NC(=O)[C@H](CO)NC(=O)[C@@H](N)CO)C(=O)N[C@@H](CCCCN)C(=O)N[C@@H](CC(C)C)C(=O)N[C@@H](CO)C(=O)N[C@@H](Cc1ccccc1)C(=O)N[C@@H](CCCN=C(N)N)C(=O)N[C@@H](C)C(=O)N[C@@H](CCCN=C(N)N)C(=O)N[C@@H](C)C(=O)N[C@@H](Cc1ccc(O)cc1)C(=O)NCC(=O)N[C@@H](Cc1ccccc1)C(=O)N[C@@H](CCCN=C(N)N)C(=O)NCC(=O)N1CCC[C@H]1C(=O)NCC(=O)N1CCC[C@H]1C(=O)N[C@@H](CCC(N)=O)C(=O)N[C@@H](CC(C)C)C(=O)O` [SSMKLSFRARAYGFRGPGPQL], the MIC in test [32] is ≥ 43 µM; with Aspergillus fumigatus it was ≥ 80 µM; in the test on Escherichia coli D22, ≥ 150 µM; in [33] it was ≥ 50 µM; in the test with Micrococcus luteus A270 it was 15 µM (≈ 34.9 µg/mL); in [34] it was 20.6 µM (≈ 48 µg/mL).
